Laboratory results published in US20080171705A1, “METHODS OF INDUCING AND TREATING VASCULAR DISEASE” (priority 2007, published 2008).

Key:
apoE^−/− mice [1] = assay: Abdominal aortic adventitia lesion analysis (incidence and severity); assay type: in vivo; details: 1 of 22 mice; vehicle control 30 percent, 3 of 10 mice
Source text: ApoE^−/− mice (backcrossed ten times to the C57BL/6 background) were purchased from The Jackson Laboratory. The mice were kept on a twelve-hour light/twelve-hour dark regimen upon arrival. All animal experiments were approved by the IACUC of the Consumer & Personal Product Worldwide, in accordance with AAALAC guidelines. Eight week old, male apoE^−/− mice were fed a normal mouse-chow diet (RP5001; PMI Feeds Inc., St. Louis, Mo.) and acclimated for one week before switching to a pro-atherogenic high fat, high cholesterol, diet (“Western diet”, 21% fat, 0.2% cholesterol, diet No. 88137, Harlan-Teklad, Madison, Wis.) for four weeks. […]
The abdominal aorta was subjected to abdominal aortic adventitia lesion analysis. […] Classification of the adventitia lesions was determined according to the scale based on the gross appearance of the aorta reported by Daugherty et al. Briefly, I: Dilated lumen in the supra-renal region of the aorta with no thrombus; II: Remodeled tissue in the supra-renal region that frequently contains thrombus; III: A pronounced bulbous form of type II that contains thrombus; IV: A form in which there are multiple adventitia lesions containing thrombus, some overlapping, in the suprarenal area of the aorta.

[2] = Sirolimus whole blood pharmacokinetics (LC-MS/MS); assay type: in vivo, apoE^−/− mice; details: i.p., daily, 0.5, 1.0 and 4.0 mg/kg
Method: (§1) Upon initiation of the pro-atherogenic diet and osmotic mini-pump implantation, mice were randomly assigned to four groups; namely, vehicle control, rapamycin or sirolimus 0.5 mg/kg, sirolimus 1.0 mg/kg and sirolimus 4.0 mg/kg body weight. The defined amount of sirolimus was dissolved in ethanol, brought up in a vehicle comprising 0.2 percent Sodium carboxymethylcellulose and 0.25 percent tween 80) and administrated to mice (i.p., daily).
Sirolimus was quantitated using liquid-liquid extraction and reverse-phase liquid chromatography mass spectrometry (LC-MS/MS). Briefly, 100 μl of mouse whole blood sample underwent protein precipitation with 5 percent Methanol/Zinc sulfate solution containing the internal standard ascomycin. After centrifugation of the resulting solution, the liquid mixture proceeded with liquid-liquid extraction with 1-chlorobutane. The combined organic extract was then blown down to dryness and reconstituted with 50:50 Methanol:20 mM ammonium acetate solution. The samples were analyzed on API-5000 using C18 reverse-phase chromatography in Multiple Reaction Monitoring (MRM) mode using atmospheric pressure chemical ionization (APCI) approach. The calibration standard curve results for sirolimus in mouse whole blood were acceptable from 0.5 ng/ml to 10,000 ng/ml with correlation coefficient of 0.998. The percent bias for the calibration standards ranged from about […] to about 8.0 percent.
The regimen of sirolimus administration (i.p., daily, 0.5, 1.0, and 4.0 mg/kg) results in significant increase of whole blood sirolimus levels in the apoE^−/− mice within 24 hours post injection. The blood drug levels reached peak level at 1 hour post injection, dropped to approximately 30 to 40 percent at 6 hours and remained at trace level at 24 hours.

apoE^−/− mice [3] = assay: Health status, body weight and re-suturing incidence post mini-pump surgery; assay type: in vivo
Source text: (§2) ApoE^−/− mice (backcrossed ten times to the C57BL/6 background) were purchased from The Jackson Laboratory. The mice were kept on a twelve-hour light/twelve-hour dark regimen upon arrival. All animal experiments were approved by the IACUC of the Consumer & Personal Product Worldwide, in accordance with AAALAC guidelines. Eight week old, male apoE^−/− mice were fed a normal mouse-chow diet (RP5001; PMI Feeds Inc., St. Louis, Mo.) and acclimated for one week before switching to a pro-atherogenic high fat, high cholesterol, diet (“Western diet”, 21% fat, 0.2% cholesterol, diet No. 88137, Harlan-Teklad, Madison, Wis.) for four weeks.
(§3) Upon initiation of the pro-atherogenic diet, Alzet osmotic mini-pumps (Model 2004; ALZA Scientific Products, Mountain View, Calif.) were implanted into the apoE^−/− mice subcutaneously. The mini-pumps were loaded with angII (EMD Biosciences, San Diego, Calif.) at the delivery rate of 1,000 ng/min/kg for twenty-eight days. The mice were anesthetized using isoflurane for the implantation of the mini-pumps. Small incisions in the lower back of the neck were made and the mini-pumps were inserted into the subcutaneous space of the mice. The incisions were then closed using sterile staplers. Triple antibiotic ointment was applied to each incision post surgery. The mice on the high fat, high cholesterol diet were sacrificed by CO2 inhalation twenty-eight days post mini-pump implantation as is explained in detail subsequently.
as §1
The data is depicted as re-suturing incedince post surgery per group size. A clear increase of the suture index is observed in response to sirolimus administration in a dose dependent manner.

[4] = Plasma lipids (total cholesterol, triglycerides, LDL and HDL cholesterol); assay type: in vivo, apoE^−/− mice
Source text: as §2, §3, §1
Plasma triglyceride and total cholesterol levels were determined via an automated enzymatic technique (Equal Diagnostic Inc., Exton, Pa.). Mouse lipoproteins were separated by fast protein liquid chromatography (FPLC) analysis of plasma using 2 Superose 6 columns in series (Pharmacia Biotech Inc., Piscataway, N.J.). Aliquots of mouse plasma (100 μl) were injected onto the column, separated with a buffer containing 0.15 M NaCl, 0.01 M Na2HPO4, and 0.1 mM EDTA (pH 7.5) at a flow rate of 0.5 mL/min, and analyzed for lipids.

blood drug level at 6 hours (relative to peak level) ([2]; 6 hours post injection): 30 to 40%
blood drug level at 24 hours ([2]; 24 hours post injection): trace level
time of peak whole blood drug level post injection ([2]; whole blood): 1 h
elevation of LDL cholesterol ([4]; all sirolimus treated mice): > 60%
increase of plasma total cholesterol level vs vehicle control ([4]; i.p., daily, 0.5, 1.0 and 4.0 mg/kg, angII, Western diet, 28 days): 44 to 50%
increase of HDL cholesterol ([4]; mice receiving sirolimus): 55 to 81%
triglyceride ([4]; regardless of the dosage employed): trend of elevated triglyceride
Compound: CO[C@H]1C[C@@H]2CC[C@@H](C)[C@@](O)(O2)C(=O)C(=O)N2CCCC[C@H]2C(=O)O[C@H]([C@H](C)C[C@@H]2CC[C@@H](O)[C@H](OC)C2)CC(=O)[C@H](C)/C=C(\C)[C@@H](O)[C@@H](OC)C(=O)[C@H](C)C[C@H](C)/C=C/C=C/C=C/1C [sirolimus]
incidence of abdominal aortic adventitia lesion (apoE^−/− mice [1]): 4.5%
body weight (apoE^−/− mice [3]; all 3 sirolimus treated groups, no statistical significance): trend of decreased body weight
health status (apoE^−/− mice [3]; i.p., daily, 0.5, 1.0 and 4.0 mg/kg, angII infusion, high fat, high cholesterol diet): not overtly affected
re-suturing incidence post surgery (wound healing) (apoE^−/− mice [3]; post mini-pump implantation, dose dependent): increased incidence of re-suturing
